{"source": "paper PMC12549532", "about": "“The complete λ-carrageenan depolymerization cascade from a marine Pseudoalteromonad revealed by structural analysis of the enzymes” (The Journal of Biological Chemistry, 2025)", "key": {"GH110A [1]": {"target": "T1, GH110A (Pseudoalteromonas distincta, UniProt Z9OJ40UL04)", "T1 construct": "without predicted signal peptide; pET28a N-terminal His-tag, cut with thrombin for crystals; E. coli host", "T1 sequence (Z9OJ40UL04 24-600)": "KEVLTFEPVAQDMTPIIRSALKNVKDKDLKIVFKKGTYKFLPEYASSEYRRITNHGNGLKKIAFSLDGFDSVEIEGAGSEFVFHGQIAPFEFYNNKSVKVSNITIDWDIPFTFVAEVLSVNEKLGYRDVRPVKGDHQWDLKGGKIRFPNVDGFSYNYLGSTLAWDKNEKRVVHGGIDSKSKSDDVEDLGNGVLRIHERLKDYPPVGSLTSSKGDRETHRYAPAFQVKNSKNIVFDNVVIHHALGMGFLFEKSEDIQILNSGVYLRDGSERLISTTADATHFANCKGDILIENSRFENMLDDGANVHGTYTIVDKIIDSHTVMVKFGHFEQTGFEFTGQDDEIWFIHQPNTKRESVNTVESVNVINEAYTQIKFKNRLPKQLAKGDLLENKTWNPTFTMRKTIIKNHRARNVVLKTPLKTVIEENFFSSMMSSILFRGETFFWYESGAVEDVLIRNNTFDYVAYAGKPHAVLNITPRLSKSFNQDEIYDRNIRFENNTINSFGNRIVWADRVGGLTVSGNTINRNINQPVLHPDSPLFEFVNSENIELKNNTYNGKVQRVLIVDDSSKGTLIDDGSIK", "assay": "X-ray crystal structure, soaked", "format": "binding", "details": "-1 subsite"}, "GH2 [2]": {"target": "T2, GH2 (Pseudoalteromonas distincta, UniProt Z9L5V2N5Y9)", "T2 sequence (Z9L5V2N5Y9 24-826)": "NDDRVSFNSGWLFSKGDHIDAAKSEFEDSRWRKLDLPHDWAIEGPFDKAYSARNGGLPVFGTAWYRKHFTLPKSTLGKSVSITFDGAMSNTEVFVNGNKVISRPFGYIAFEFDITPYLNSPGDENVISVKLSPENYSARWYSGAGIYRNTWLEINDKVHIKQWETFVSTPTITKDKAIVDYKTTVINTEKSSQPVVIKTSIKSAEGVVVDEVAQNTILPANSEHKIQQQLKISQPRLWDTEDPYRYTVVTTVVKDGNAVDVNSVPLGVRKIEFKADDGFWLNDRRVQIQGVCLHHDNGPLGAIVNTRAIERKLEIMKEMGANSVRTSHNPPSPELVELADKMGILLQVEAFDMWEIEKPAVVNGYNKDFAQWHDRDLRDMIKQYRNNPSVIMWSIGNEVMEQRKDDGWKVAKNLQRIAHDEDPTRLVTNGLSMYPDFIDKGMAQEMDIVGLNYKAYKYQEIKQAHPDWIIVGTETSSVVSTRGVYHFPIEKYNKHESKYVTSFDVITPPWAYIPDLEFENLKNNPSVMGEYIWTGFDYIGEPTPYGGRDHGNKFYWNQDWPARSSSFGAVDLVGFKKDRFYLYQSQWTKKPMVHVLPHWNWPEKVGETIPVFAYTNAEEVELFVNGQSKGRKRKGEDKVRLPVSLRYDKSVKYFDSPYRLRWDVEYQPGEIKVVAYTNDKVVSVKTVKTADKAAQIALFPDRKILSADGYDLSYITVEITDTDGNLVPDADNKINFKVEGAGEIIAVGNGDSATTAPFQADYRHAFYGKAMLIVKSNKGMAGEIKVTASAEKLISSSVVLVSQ", "assay": "X-ray crystal structure, soaked", "format": "binding", "set-up": "without predicted signal peptide; pET28a N-terminal His-tag, cut with thrombin for crystals; E. coli Tuner (DE3)", "details": "inhibitor in -1 subsite, capping loop closed"}, "GH2 [3]": {"target": "T2, GH2", "assay": "chromogenic activity assay (data not shown)"}, "GH110A [4]": {"target": "T3, GH110A (Pseudoalteromonas distincta, UniProt Z9OJ40UL04, D324N, form not given)", "T3 construct": "without predicted signal peptide; pET28a N-terminal His-tag, cut with thrombin for crystals; E. coli host", "T3 sequence (Z9OJ40UL04 24-600 D324N)": "T1 sequence (Z9OJ40UL04 24-600) with D301N", "assay": "X-ray crystal structure, soaked", "format": "binding", "details": "inactive mutant; trisaccharide G6S in -1 subsite modelled, partial occupancy in +1 and +2"}, "S1_8B [5]": {"target": "T4, S1_8B (Pseudoalteromonas distincta, UniProt Z9FD83UQX5)", "T4 construct": "without predicted signal peptide; pET28a N-terminal His-tag, cut with thrombin for crystals; E. coli BL21 (DE3) Star", "T4 sequence (Z9FD83UQX5 24-541)": "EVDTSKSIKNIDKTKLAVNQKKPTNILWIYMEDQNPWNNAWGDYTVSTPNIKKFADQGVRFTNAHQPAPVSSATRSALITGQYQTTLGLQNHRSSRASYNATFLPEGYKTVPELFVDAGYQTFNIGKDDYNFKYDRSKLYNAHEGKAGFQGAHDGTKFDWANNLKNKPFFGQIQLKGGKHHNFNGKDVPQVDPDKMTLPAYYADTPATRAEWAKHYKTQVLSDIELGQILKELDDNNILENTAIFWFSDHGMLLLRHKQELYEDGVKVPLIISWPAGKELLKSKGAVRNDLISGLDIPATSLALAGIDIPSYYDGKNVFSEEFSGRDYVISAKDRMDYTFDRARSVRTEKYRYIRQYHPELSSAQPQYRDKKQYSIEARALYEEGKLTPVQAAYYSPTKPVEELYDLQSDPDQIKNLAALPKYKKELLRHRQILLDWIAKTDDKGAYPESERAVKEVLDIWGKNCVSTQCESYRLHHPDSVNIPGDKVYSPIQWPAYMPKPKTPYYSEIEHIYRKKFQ", "assay": "X-ray crystal structure, soaked", "format": "binding", "details": "inactive mutant (printed C84S); 2.1 Å; modelled as fully sulfated Hex4S6"}, "S1_8B [6]": {"target": "T5, S1_8B (Pseudoalteromonas distincta, UniProt Z9FD83UQX5, S94C, form not given)", "T5 construct": "without predicted signal peptide; pET28a N-terminal His-tag, cut with thrombin for crystals; E. coli BL21 (DE3) Star", "T5 sequence (Z9FD83UQX5 24-541 S94C)": "T4 sequence (Z9FD83UQX5 24-541) with S71C", "assay": "preparative desulfation, product seen in crystal complexes", "format": "biochemical", "details": "2-O-desulfation of the non-reducing end"}}, "note": "Substitutions are numbered along the chain they refer to."}
{"smiles": "O=S(=O)(O)OC[C@H]1OC(O)[C@H](O)[C@@H](O)[C@H]1O", "note": "(stereo partly drawn) [G6S]", "values": [{"measurement": "X-ray crystal structure, soaked", "setting": "GH110A [1]", "result": "We determined the structure of GH110A in complex with the monosaccharide G6S"}]}
{"smiles": "OC[C@H]1CNC[C@@H](O)[C@H]1O", "note": "[GIF, galactoisofagomine]", "values": [{"measurement": "X-ray crystal structure, soaked", "setting": "GH2 [2]", "result": "The structure of GH2 in complex with the inhibitor galactoisofagomine (GIF)"}]}
{"smiles": "O=[N+]([O-])c1ccc(O[C@@H]2O[C@H](CO)[C@H](O)[C@H](O)[C@H]2O)cc1", "note": "[pNP-β-Gal, pNP-β-D-galactopyranoside]", "values": [{"measurement": "chromogenic activity assay (data not shown)", "setting": "GH2 [3]", "result": "GH2 was active on pNP-β-D-galactopyranoside (pNP-β-Gal; not shown)"}]}
{"smiles": "O=S(=O)(O)OC[C@H]1O[C@H](O[C@H]2[C@@H](O)[C@@H](CO)O[C@@H](O[C@@H]3[C@H](O)[C@@H](OS(=O)(=O)O)[C@@H](O[C@H]4[C@@H](O)[C@@H](CO)OC(O)[C@@H]4OS(=O)(=O)O)O[C@@H]3COS(=O)(=O)O)[C@@H]2OS(=O)(=O)O)[C@H](O)[C@@H](O)[C@H]1O", "note": "(stereo partly drawn) [λ-NC4 pre-treated with S1_8B]", "values": [{"measurement": "X-ray crystal structure, soaked", "setting": "GH110A [4]", "result": "determining its structure in complex with λ−NC4 that was pre-treated with S1_8B"}]}
{"smiles": "O=S(=O)(O)OC[C@H]1O[C@H](O[C@H]2[C@@H](O)[C@@H](CO)O[C@@H](O[C@@H]3[C@H](O)[C@@H](OS(=O)(=O)O)[C@@H](O[C@H]4[C@@H](O)[C@@H](CO)OC(O)[C@@H]4OS(=O)(=O)O)O[C@@H]3COS(=O)(=O)O)[C@@H]2OS(=O)(=O)O)[C@H](OS(=O)(=O)O)[C@@H](O)[C@H]1O", "note": "(stereo partly drawn) [λ-NC4, λ-neocarratetraose]", "values": [{"measurement": "X-ray crystal structure, soaked", "setting": "S1_8B [5]", "result": "We were able to model both tetrasaccharides as fully sulfated λ−NC4 (i.e., Hex4S6)"}, {"measurement": "preparative desulfation, product seen in crystal complexes", "setting": "S1_8B [6]", "result": "pretreated with S1_8B to convert the non-reducing end residue to G6S"}]}
